For one molecule, Stability results are on record in patent US20160213569A1, “PHARMACEUTICAL COMPOSITIONS OF RANOLAZINE AND DRONEDARONE” (Gilead Sciences, Inc., priority 2013, published 2016).

A short description of this data set: Stability of phosphoric acid salt of dronedarone prepared without polymer. It counts as physicochemical. The note with it: 45° C. and 75% relative humidity (RH).

Consider `CCCCc1oc2ccc(NS(C)(=O)=O)cc2c1C(=O)c1ccc(OCCCN(CCCC)CCCC)cc1.O=P(O)(O)O` [phosphoric acid salt of dronedarone], for which the Stability entry is listed as “unstable”.
